Measured values taken from patent US12486246B2, “Replication protein A (RPA)-DNA interaction inhibitors” (THE TRUSTEES OF INDIANA UNIVERSITY, priority 2019, dated 2025).
Values after ≈ are worked out from the molar mass of the structure shown.

Columns and labels:
[1] = biological target: T1, full length heterotrimeric human RPA (Homo sapiens, UniProt P27694); assay: Electrophoretic mobility shift assay (EMSA), binding of full length human RPA to ssDNA; conditions: full length human RPA binding to DNA, mean ± SD of minimum triplicate experiments
T1 construct: Full length, heterotrimeric human RPA (fl-RPA) and DBD-A/B constructs were expressed and purified; made in house
Description: (§1) Full length, heterotrimeric human RPA (fl-RPA) and DBD-A/B constructs were expressed and purified according to previously described protocol. The DBD-A/B construct was expressed as a His6-RPA181-422 fusion protein. E. coli BL21 (DE3) cells in log growth were induced for 3 h with 0.5 mM IPTG at 37° C. The cells were lysed via sonication in buffer containing 20 mM Tris pH 7.5, 500 mM NaCl, 10 mM b-mercaptoethanol, supplemented with 25 μg/mL lysozyme, 1 μg/mL leupeptin, 1 μg/mL pepstatin and 0.5 mM PMSF. The lysate was applied to a 20 mL phosphocellulose column equilibrated in the same buffer and the flow-through material collected, brought to 5 mM Imidazole and loaded onto a 2 ml Ni-NTA column. The column was washed and proteins eluted on with a gradient from 50 mM to 500 mM imidazole. Fractions were assessed by EMSA and SDS-PAGE and DBD-A/B containing fraction were pool, dialyzed against buffer containing 50 mM HEPES pH 7.0, 500 mM NaCl and 1 mM DTT and stored at −80° C.
(§2) EMSAs were carried out using previously described procedure with the following modification. EMSA reactions (20 μL) were performed with 50 nM fl-RPA and 2.5 nM 5′ [^32P]-labeled 34-base DNA in buffer containing 20 mM HEPES (pH 7.8), 1 mM DTT, 0.001% NP-40, 50 mM NaCl. Chemical compounds were suspended in DMSO and DMSO concentration in the reaction mixture was kept constant at 2% or below 5%. RPA was incubated with inhibitor or DMSO control in reaction buffer for 30 min before the addition of DNA. Reactions were incubated for 5 min at room temperature and products separated via 6% native polyacrylamide gel electrophoresis. The bound and unbound fractions were then quantified by phosphor-imager analysis using ImageQuant software (Molecular Dynamics, CA) and IC50 values calculated by non-linear regression using SigmPlot (Sysat). For EMSA reactions with RPA DBD-A/B, 150 nM DBD-A/B was used, and electrophoresis was performed at 4° C. All other conditions were identical to those described for the full-length RPA.
Purified full length heterotrimeric human RPA protein was used to screen a series of analogs in an electrophoretic mobility shift assay (EMSA) measuring direct binding to a ss-DNA substrate. Quantification of the EMSA data and additional concentration dependent analysis to measure IC50 values of newly synthesized analogs provided potential insight into the structure-activity relationships (Table 1 and 2). […] Fluorine and trifluoromethyl substituents were included in pyridinyl compounds 28-29.

H460 NSCLC cells [2] = assay: Combination index (Chou-Talalay), CCK-8 assay; assay type: cell-based; conditions: CI <1.0 = synergy
Description: (§3) Cell survival was determined by CCK-8 viability assay and/or clonogenic survival assay in 96 well plates or 24 well plates, respectively and combination index (CI) analysis of drug-drug interactions determined by Chou-Talalay analysis as we have previously described. • 1) CCK-8 metabolic assay: Cells were plated (2500 cells/well) in 96-well plate and allowed to grow for at least 18 hours in at 37° C. in the presence of 5% CO2 before treatment with inhibitor for 48 hours. CCK-8 solution (Dojindo) was added to 10% of the total media volume and after 1-4 hours of incubation absorbance at 450 nm was determined using BioTek® Synergy™ H1 hybrid multi-mode microplate reader • 2) Clonogenic survival assay: Cells were plated in a 24 well (20,000 cells/well) plate, incubated for at least 18 hours and then treated with inhibitor. After 48 hours of treatment, the cells are re-plated in 10 cm dishes (500 cells/dish) and incubated for 8-10 days to allow colony formation. Plates are washed with PBS, fixed with glutaraldehyde and stained with crystal violet. Images of the stained colonies were captured with a Fuji LAS-3000 CCD system then counted using OpenCFU software. Viability is determined as a percent of vehicle controls and plotted versus drug concentration. • 3) Assessment of synergy via combination index (CI): In the combination index studies, cells (H460 or SKGT4) were treated with RPA inhibitor and Pt/etoposide/bleomycin/taxol/DDR inhibitor alone as well as the combination of both—the inhibitor and the DNA damaging chemotherapeutic agent/DDR inhibitor. The range of treatment was dependent on the IC50 of each inhibitor/drug. If the IC50 was X, then the cells were treated at a range of 0.04× to 5× concentration in a CCK-8 metabolic assay. The kill curves from both the single agent treatments as well as the combination treatment were used in a Chou-Talalay based method to determine the combination index (CI) at different fractions of cells affected.^40 A CI>1.0 indicates antagonism between the two agents, while a CI<1.0 indicates synergy.
Inhibiting RPA can act synergistically with DNA damaging therapeutics including cisplatin and etoposide (FIG. 4C). In these studies, we used the Chou-Talalay method, which provides a combination index (CI) that quantifies synergistic activity for each drug combination. […] The synergistic activity of compounds described herein with DNA damaging agents may be explained by RPA's role in the DNA damage response and signaling.

H460 NSCLC cells [3] = assay: Cellular uptake measurement by LC/MS; assay type: in vitro ADME; conditions: 20 μM, 4 hours, 37° C.
Description: All cells were grown as monolayers at 37° C. with 5% CO2 in media containing 20% fetal bovine serum and 0.1% pen/strep. Cellular uptake was assessed in both H460 NSCLC and SKGT4 esophageal adenocarcinoma cells. Briefly, cells were plated in 35 mm dishes at 1×10^6 cells well and incubated overnight. Compounds were added to the medium at a concentration of 20 μM incubation continued for 4 hours. Media was removed and cells washed 3× with PBS. 1 mL of methanol was added per well and cells agitated overnight at 4° C. The methanol was collected, wells washed with an additional 1 ml of methanol and pooled. The compounds were dried under vacuum, suspended in methanol and quantified by LC/MS.
Cellular uptake of our compounds in H460 NSCLC cells was analyzed (FIG. 3B). Initially, compounds were first solubilized in 100% DMSO then diluted in aqueous buffer of media to achieve the desired concentrations, the final DMSO concentration was 1% or less in all experiments. Cells were treated with a fixed concentration (20 μM) for 4 hours at 37° C. The intracellular drug concentrations were determined following extraction with ice cold MeOH and analysis via LC and LC/MS. […] Similar uptake data was also obtained in the SKGT4 esophageal adenocarcinoma cell line.

[4] = Aqueous solubility as a function of pH; assay type: physicochemical; conditions: thermodynamic from solid
Description: Aqueous solubility was determined by suspending compound in un-buffered water with stirring. Insoluble material was removed by sedimentation or filtration and soluble compound quantified by absorbance spectroscopy and LC/MS. pH dependence was determined by suspending compound in 10 mM citrate buffer at pH 4.0 or 10 mM phosphate […] as described above in the description.
The morpholine ring is commonly introduced into solvent exposed regions as a privileged solubilizing group to improve solubility or pharmacokinetic properties including metabolic stability of a prospective drug scaffold which is exemplified by many FDA approved drugs. Modifications on Ring A had less of an effect than the morpholino modifications at the alkyl carboxylic acid side chain. To determine the effect of pH on solubility, we prepared solution at 1 mM in citrate buffer at pH 4, phosphate buffer at pH 7 and carbonate buffer at pH 9.5.

[5] = biological target: T2, RPA DBD-A/B construct (His6-RPA181-422 of RPA70) (Homo sapiens, UniProt P27694); assay: EMSA, binding of RPA DBD-A/B construct to DNA; conditions: mean ± SD, read-out: RPAA/B IC50
T2 construct: The DBD-A/B construct was expressed as a His6-RPA181-422 fusion protein; His6 (N); made in house; host or cells: E. coli BL21 (DE3)
Description: as §1, §2
These domains are compact modular domains populated with hydrophobic and basic DNA binding amino acid residues and have great potential to influence binding of the compounds to the RPA70 subunit. RPA DBD-A/B construct was purified via Ni-affinity chromatography. The activity of compounds 23-27 was evaluated on purified DBD-A/B construct using EMSA.

H460 NSCLC cells [6] = assay: Cell survival, CCK-8 metabolic assay, single agent; assay type: cell-based
Description: as §3, with “After 48 hours of treatment, the cells are re-plated in 10 cm dishes (500 cells/dish) and incubated for 8-10 days to allow colony formation. Plates are washed with PBS, fixed with glutaraldehyde and stained with crystal violet.” left out, “The range of treatment was dependent on the IC50 of each inhibitor/drug. If the IC50 was X, then the cells were treated at a range of 0.04× to 5× concentration in a CCK-8 metabolic assay. The kill curves from both the single agent treatments as well as the combination treatment were used in a Chou-Talalay based method to determine the combination index (CI) at different fractions of cells affected.^40 A CI>1.0 indicates antagonism between the two agents, while a CI<1.0 indicates synergy.” left out

[7] = tested on: sonicated salmon sperm DNA; assay: Fluorescent intercalator displacement (FID) assay, SYBR-Green; assay type: binding; conditions: 25 mM MOPS pH 6.5
Description: The analysis of compound interactions with DNA was determined by inhibition of SYBR-Green intercalation into DNA as we have previously described. Briefly, reactions were performed in 25 mM MOPS (pH 6.5) containing sonicated salmon sperm DNA (8.29 ng/μL), SYBR-Green, and the indicated concentrations of RPA inhibitors. Reactions were conducted in black 96-well plates. Doxorubicin, a known noncovalent DNA binding chemotherapeutic, was used as a positive control. Fluorescence was measured using a BioTek® Synergy™ H1 hybrid multi-mode microplate reader with an excitation wavelength of 485 nm, emission wavelength of 528 nm, and a read height of 7 mm. Data were collected using BioTek® Gen5™ reader software. Reactions were incubated a maximum of 5 min before measurements were collected.
In order to probe the potential role of DNA intercalation as a mechanism for RPA inhibition, compounds 19, 23, 26, 27, 43 and 45 were analyzed using FID assay along with doxorubicin (Dox) as a positive control. […] In addition, direct binding of 9 derivatives to the target protein was assessed using a differential scan fluorimetry (DSF) assay. This assay assesses the melting profile of a protein at increasing temperatures via fluorescent dye binding. The direct interaction of a small molecule to the target protein can either increase or decrease the melting temperature (Tm) of the target depending on the specific protein and their interactions. […] Heparin sulfate, a known RPA interacting molecule often used in the purification of the protein was used as a control. […] (data not shown). […] (FIG. 1B).

T1 sequence (P27694 whole entry): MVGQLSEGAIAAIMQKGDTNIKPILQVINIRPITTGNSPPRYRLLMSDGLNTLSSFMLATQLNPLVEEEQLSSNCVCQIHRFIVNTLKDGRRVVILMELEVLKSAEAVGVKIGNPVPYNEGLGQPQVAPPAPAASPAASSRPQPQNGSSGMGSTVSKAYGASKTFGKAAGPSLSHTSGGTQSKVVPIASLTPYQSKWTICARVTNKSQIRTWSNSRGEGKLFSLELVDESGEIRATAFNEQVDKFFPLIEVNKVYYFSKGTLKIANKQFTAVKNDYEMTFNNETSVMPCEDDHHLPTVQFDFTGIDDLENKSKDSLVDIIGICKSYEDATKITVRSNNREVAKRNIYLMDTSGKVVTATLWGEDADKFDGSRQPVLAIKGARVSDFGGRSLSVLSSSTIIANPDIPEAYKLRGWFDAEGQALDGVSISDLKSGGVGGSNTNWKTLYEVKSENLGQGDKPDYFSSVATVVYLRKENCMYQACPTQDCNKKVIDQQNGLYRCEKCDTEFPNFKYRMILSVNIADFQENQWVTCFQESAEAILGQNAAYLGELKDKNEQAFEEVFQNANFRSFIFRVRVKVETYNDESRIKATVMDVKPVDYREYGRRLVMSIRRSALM
T1 sequence (P15927 whole entry partner): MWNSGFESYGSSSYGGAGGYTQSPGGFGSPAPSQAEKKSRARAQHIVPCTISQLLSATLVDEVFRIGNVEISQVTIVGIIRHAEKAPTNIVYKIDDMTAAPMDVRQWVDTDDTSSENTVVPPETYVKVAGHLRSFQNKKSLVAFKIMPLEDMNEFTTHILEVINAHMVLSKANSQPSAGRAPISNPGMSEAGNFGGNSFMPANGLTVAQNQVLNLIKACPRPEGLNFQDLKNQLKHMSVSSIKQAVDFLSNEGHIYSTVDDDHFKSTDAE
T1 sequence (P35244 whole entry partner): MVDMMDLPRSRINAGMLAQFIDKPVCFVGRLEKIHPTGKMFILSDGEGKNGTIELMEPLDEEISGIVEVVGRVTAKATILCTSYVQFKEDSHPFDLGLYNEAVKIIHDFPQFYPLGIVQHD
T2 sequence (P27694 181-422): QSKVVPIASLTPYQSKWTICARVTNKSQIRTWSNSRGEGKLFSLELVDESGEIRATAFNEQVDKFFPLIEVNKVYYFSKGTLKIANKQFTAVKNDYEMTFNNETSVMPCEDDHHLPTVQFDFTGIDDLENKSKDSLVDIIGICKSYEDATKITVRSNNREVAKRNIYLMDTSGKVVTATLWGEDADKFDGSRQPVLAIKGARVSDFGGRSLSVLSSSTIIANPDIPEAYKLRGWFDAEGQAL

**Q.** With `CCOc1ccc2cc(C3CC(c4ccc(I)cc4)=NN3C(=O)CCCC(=O)O)c(Cl)nc2c1` (centres unmarked) [Compound 9, 5-(5-(2-Chloro-7-ethoxyquinolin-3-yl)-3-(4-iodophenyl)-4,5-dihydro-1H-pyrazol-1-yl)-5-oxopentanoic acid] as the compound, how does the IC50 [1] read?
**A.** 15.3 ± 1.42 µM

**Q.** And the “synergy (combination index) with DNA damaging therapeutics cisplatin and etoposide” value (H460 NSCLC cells [2])?
**A.** showed synergy but not as robust of activity as compound 8

**Q.** And the “cellular uptake (in words)” value (H460 NSCLC cells [3])?
**A.** relatively poor uptake

**Q.** What about the solubility ([4]; aqueous buffer at pH 9.5, pH 9.5, aqueous buffer) of the same compound?
**A.** 112.5 ± 0.74 µM (≈ 66.6 µg/mL)

**Q.** What about the solubility ([4]; aqueous buffer, pH 4, citrate buffer) of the same compound?
**A.** 0.76 ± 0.35 µM (≈ 0.45 µg/mL)

**Q.** And the solubility ([4]; aqueous buffer, pH 7, phosphate buffer)?
**A.** 3.31 ± 0.36 µM (≈ 1.96 µg/mL)

**Q.** Which results are given for `CCOc1ccc2cc(C3CC(c4ccc(-c5ccc(Cl)nc5)cc4)=NN3C(=O)CCCC(=O)O)c(Cl)nc2c1` (centres unmarked) [Compound 26, 5-(5-(2-Chloro-7-ethoxyquinolin-3-yl)-3-(4-(6-chloropyridin-3-yl)phenyl)-4,5-dihydro-1H-pyrazol-1-yl)-5-oxopentanoic acid]?
**A.** IC50 [5]: 11.7 ± 0.3 µM; cellular anticancer activity compared to compound 9 (H460 NSCLC cells [6]): increase in cellular anticancer activity; IC50 [1]: 1.61 ± 0.04 µM; cellular uptake (in words) (H460 NSCLC cells [3]): increased uptake; DNA binding activity (displacement of SYBR-Green intercalator) [7]: No significant DNA binding activity
